Consider 38 compounds from patent US20240131028A1, “CHEMOVACCINATION AGAINST PLASMODIUM INFECTION WITH SELECTIVE PLASMEPSIN X INHIBITORS” (Merck Sharp & Dohme LLC, priority 2021, published 2024).

SMILES strings stand for the structures.

For the first assay, the system named is ring stage parasites (Pf). The assay is described as follows: Parasite lactate dehydrogenase (LDH) growth assay (Parasite Assay, PfLDH Assay). The note with it: Plasmodium falciparum, 72 h, Table 3; 72 hours growth, LDH readout; read-out: EC50. The assay is classed as cell-based, P. falciparum. The protocol:
The parasite stock was maintained at 4% haematocrit in RPMI-Hepes media buffered with sodium bicarbonate and supplemented with 5% heat inactivated human serum and 0.5% albumax. […] On the day of assay set up, a blood smear of the parasite culture was Giemsa stained and counted. The parasitemia was adjusted to 0.7% rings and the haematocrit was diluted to 2% in RPMI-Hepes media buffered with sodium bicarbonate and supplemented with 5% heat inactivated human serum and 0.5% albumax. 30 μl of diluted parasites are then added into 10 μl of media+compound in pre-prepared Greiner TC assay plates. Parasite assay plates were placed in gassed humidified boxes in single layer and allowed to incubate at 37° C. for 72 hours. After 72 hours growth, assay plates were sealed with parafilm and frozen flat, in single file at −80° C. overnight. On the following day, assay plates were allowed to thaw at room temperature for 4 hours to which an LDH assay was performed to measure parasite growth.
For `CCC1(CC)CC(=O)N([C@H](CCOC)[C@H]2C[C@@H]2C(=O)N[C@H]2CC(C)(C)Oc3ccccc32)C(=N)N1` [Example 1A], the EC50 turned out to be 1 nM. Still for that read-out and setting: with `CCC1(CC)CC(=O)N([C@H](CCOC)[C@H]2C[C@@H]2C(=O)N[C@@H]2CC(C)(C)Oc3ccccc32)C(=N)N1` [Example 1B] the figure was 250 nM.

For `CCC1(CC)CC(=O)N(C[C@H]2C[C@@H]2C(=O)N[C@H](C)c2ccccc2)C(=N)N1` [Example 3B], the EC50 was 151 nM. As to `CCC1(CC)CC(=O)N(C[C@H]2C[C@@H]2C(=O)N[C@@H]2CCOc3ccccc32)C(=N)N1` [Example 4B], the EC50 came to 26 nM. Regarding `CCC1(CC)CC(=O)N(C[C@H]2C[C@@H]2C(=O)N[C@H]2CC(C)(C)Oc3ccccc32)C(=N)N1` [Example 5], the EC50 stood at 49 nM.

On to `CCC1(CC)CC(=O)N(C[C@H]2C[C@@H]2C(=O)N[C@H]2c3ccccc3C[C@@H]2O)C(=N)N1` [Example 6A], for which the EC50 was determined as 188 nM. On the same count and under the same terms, with `CCC1(CC)CC(=O)N(C[C@H]2C[C@@H]2C(=O)N[C@H]2CC(C)(C)Oc3ccc(F)cc32)C(=N)N1` [Example 7A] the figure was 135 nM; with `CCC1(CC)CC(=O)N(C[C@H]2C[C@@H]2C(=O)N[C@@H]2CC(C)(C)Oc3ccc(F)cc32)C(=N)N1` [Example 7B], 29 nM.

For `CCC1(CC)CC(=O)N(C[C@H]2C[C@@H]2C(=O)N[C@H]2C[C@@H](C(F)(F)F)Oc3ccccc32)C(=N)N1` [Example 8A], the half-maximal effective concentration (EC50) amounted to 37 nM. Same read-out and setting: with `CCC1(CC)CC(=O)N(C[C@H]2C[C@@H]2C(=O)N[C@@H]2C[C@@H](C(F)(F)F)Oc3ccccc32)C(=N)N1` [Example 8B] the figure was 5.3 nM. The same measure, in the same setting: with `CCC1(CC)CC(=O)N([C@H](c2cccnc2)[C@H]2C[C@@H]2C(=O)N[C@H]2CCOc3ccccc32)C(=N)N1` [Example 9] the figure was 6.9 nM; with `CCC1(CC)CC(=O)N([C@H](c2cccnc2)[C@H]2C[C@@H]2C(=O)N[C@@H]2c3ccccc3C[C@@H]2O)C(=N)N1` [Example 10], 27 nM; with `CCC1(CC)CC(=O)N([C@H](c2cccnc2)[C@H]2C[C@@H]2C(=O)N[C@@H]2c3ccccc3OC(C)(C)[C@H]2O)C(=N)N1` [Example 11A], 4.1 nM. The same measure, in the same setting: the result for `CCC1(CC)CC(=O)N([C@H](c2cccnc2)[C@H]2C[C@@H]2C(=O)N[C@H]2c3ccccc3OC(C)(C)[C@H]2O)C(=N)N1` [Example 11B] reads 24 nM; that for `CCC1(CC)CC(=O)N([C@H](c2cccnc2)[C@H]2C[C@@H]2C(=O)N[C@H]2C[C@@H](C(F)(F)F)Oc3ccccc32)C(=N)N1` [Example 12], 0.9 nM.

As to `CCC1(CC)CC(=O)N([C@H](CCOC)[C@H]2C[C@@H]2C(=O)N[C@@H]2c3ccccc3C[C@@H]2O)C(=N)N1` [Example 13], the EC50 was determined as 24 nM. On to `CCC1(CC)CC(=O)N([C@H](CCOC)[C@H]2C[C@@H]2C(=O)N[C@H]2C[C@@H](C(F)(F)F)Oc3ccccc32)C(=N)N1` [Example 14], for which the half-maximal effective concentration (EC50) was determined as 0.9 nM. Still for that read-out and setting: the result for `CCC1(CC)CC(=O)N(C[C@@H]2[C@@H](C(=O)N[C@H]3c4ccccc4OC(C)(C)[C@H]3O)C2(F)F)C(=N)N1` [Example 18A] reads 39 nM; that for `CCC1(CC)CC(=O)N([C@H](CCOC)[C@H]2C[C@@H]2C(=O)N[C@@H]2c3ccccc3OCC2(C)C)C(=N)N1` [Example 19A], 28 nM. The same measure, in the same setting: with `CCC1(CC)CC(=O)N([C@H](CCOC)[C@H]2C[C@@H]2C(=O)N[C@H]2c3ccccc3OCC2(C)C)C(=N)N1` [Example 19B] the figure was 4.2 nM. Same read-out and setting: the result for `COCC[C@H]([C@H]1C[C@@H]1C(=O)N[C@H]1CC(C)(C)Oc2ccccc21)N1C(=N)N[C@](C)(C(C)C)CC1=O` [Example 20] reads 5.3 nM; that for `COCC[C@H]([C@H]1C[C@@H]1C(=O)N[C@H]1C[C@@H](C(F)(F)F)Oc2ccccc21)N1C(=N)N[C@](C)(C(C)C)CC1=O` [Example 21A], 260 nM; that for `COCC[C@H]([C@H]1C[C@@H]1C(=O)N[C@@H]1C[C@@H](C(F)(F)F)Oc2ccccc21)N1C(=N)N[C@](C)(C(C)C)CC1=O` [Example 21B], 1 nM. For `COCC[C@H]([C@H]1C[C@@H]1C(=O)N[C@H]1CCOc2ccccc21)N1C(=N)N[C@](C)(C(C)C)CC1=O` [Example 22], the concentration giving a half-maximal response (EC50) was 44 nM. Same read-out and setting: the result for `COCC[C@H]([C@H]1C[C@@H]1C(=O)NC1CC(C)(C)Oc2ccccc21)N1C(=N)NC(C)(C)CC1=O` (some centres unmarked) [Example 23A] reads 16 nM; that for `COCC[C@H]([C@H]1C[C@@H]1C(=O)N[C@H]1C[C@@H](C(F)(F)F)Oc2ccccc21)N1C(=N)NC(C)(C)CC1=O` [Example 24A], 3.4 nM; that for `COCC[C@H]([C@H]1C[C@@H]1C(=O)N[C@@H]1C[C@@H](C(F)(F)F)Oc2ccccc21)N1C(=N)NC(C)(C)CC1=O` [Example 24B], 2 nM. Consider `COCC[C@@H]([C@H]1C[C@@H]1C(=O)N[C@H]1C[C@@H](C(F)(F)F)Oc2ccccc21)N1C(=N)NC(C)(C)CC1=O` [Example 24C], for which the EC50 came to 120 nM.

Consider `CC1(C)CC(=O)N([C@H](c2cccnc2)[C@H]2C[C@@H]2C(=O)N[C@H]2CC(C)(C)Oc3ccccc32)C(=N)N1` [Example 26], for which the half-maximal effective concentration (EC50) was 4.7 nM. Turning to `CC1(C)CC(=O)N([C@H](c2cccnc2)[C@H]2C[C@@H]2C(=O)N[C@@H]2c3ccccc3OC(C)(C)[C@H]2O)C(=N)N1` [Example 27], the EC50 was 78 nM.

Still in this assay, the particulars now being: Table 3; 72 hours growth, LDH readout; read-out: EC50.
With `CCC1(CC)CC(=O)N(C[C@H]2C[C@@H]2C(=O)N[C@H]2c3ccccc3C[C@@H]2O)C(=N)N1` [Example 6B], the EC50 came to 269 nM. Same read-out and setting: the result for `COCC[C@H]([C@H]1C[C@@H]1C(=O)NC1CC(C)(C)Oc2ccccc21)N1C(=N)NC(C)(C)CC1=O` (some centres unmarked) [Example 23B] reads 15 nM.

The same assay, now with this note: Table 4; 72 hours growth, LDH readout; read-out: EC50 (Table 4).
For `CCC1(CC)CC(=O)N(C(CC(C)OC)[C@H]2C[C@@H]2C(=O)N[C@H]2CC(C)(C)Oc3ccccc32)C(=N)N1` (single isomer, unassigned) [Example 142D], the half-maximal effective concentration (EC50) worked out at 115 nM.

In the case of `CCC1(CC)CC(=O)N(C(CC(C)OC)[C@H]2C[C@@H]2C(=O)N[C@@H]2CC(C)(C)Oc3ccccc32)C(=N)N1` (single isomer, unassigned) [Example 143A], the half-maximal effective concentration (EC50) came to 4.6 nM. On to `CCC1(CC)CC(=O)N(C(CC(C)OC)[C@H]2C[C@@H]2C(=O)N[C@@H]2CC(C)(C)Oc3ccccc32)C(=N)N1` (single isomer, unassigned) [Example 143B], for which the half-maximal effective concentration (EC50) amounted to 2.4 nM. Turning to `CCC1(CC)CC(=O)N(C(CC(C)OC)[C@H]2C[C@@H]2C(=O)N[C@@H]2CC(C)(C)Oc3ccccc32)C(=N)N1` (single isomer, unassigned) [Example 143C], the 50% effective concentration (EC50) is 57.9 nM.

Consider `CCC1(CC)CC(=O)N([C@H](CCOC)[C@H]2C[C@@H]2C(=O)NC2CC(C)(C)Oc3cc(Cl)ccc32)C(=N)N1` (single isomer, unassigned) [Example 147A], for which the concentration giving a half-maximal response (EC50) turned out to be 2.8 nM. For the compound `CCC1(CC)CC(=O)N([C@H](CCOC)[C@H]2C[C@@H]2C(=O)NC2CC(C)(C)Oc3cc(Cl)ccc32)C(=N)N1` (single isomer, unassigned) [Example 147B], the concentration giving a half-maximal response (EC50) came to 8.2 nM.
